Measurements from patent US20260207702A1, “USE OF AVPR1A AGONISTS” (Viage Therapeutics Inc., priority 2022, published 2026).
Where a SMILES comes first, the peptide text is derived from it. Bridges are numbered along the chain shown (N, C = ends).

Key:
healthy subjects = settings: in vivo
Method: A Phase 1a/1b, randomized, placebo-controlled, crossover study with the peptide [sequence] (SEQ ID NO: 1) in healthy subjects was performed. The study population included men and women in good general health.
A single ascending dose (SAD) group included four cohorts receiving 60 mg/day (cohorts SAD1 and SAD2), 180 mg/day (cohort SAD3), or 540 mg/day (cohort SAD4) of the peptide or placebo. […] All doses were administered orally. […] Seven days after the end of dosing, this group was then switched to receiving placebo once a day for seven days, followed by another 24-hour period of sleep deprivation. then crossing to 540 mg of peptide once a day for 7 days. In another group (n=7, with one participant withdrawing after initiation for personal reasons), the inverse dose regimen was used, with participants starting with placebo and the crossing over to 540 mg of peptide once a day.

mouse [1] = assay: Tail suspension test (TST) with vasopressin receptor inhibitors (Example 1); type: in vivo
Source text: NO: 1) is either AVPR1A or AVPR2 (FIGS. 1-2).

mouse [2] = assay: Mouse tail suspension test with felypressin (Example 5); type: in vivo
Method: The effect of orally administered felypressin, a selective AVPR1A agonist, on antidepressant activity in the mouse tail suspension test was evaluated. Felypressin at 0.03 mg/kg, 0.1 mg/kg, and 0.3 mg/kg was compared to the peptide […] (SEQ ID NO: 1) at 0.3 mg/kg (n=6 per group). The effect of orally administered felypressin (0.1 mg/kg) was also compared to the effect of orally administered felypressin (0.1 mg/kg) plus the AVPR1A/AVPR2 inhibitor conivaptan (3 mg/kg) (n=7 per group).

mouse [3] = assay: Mouse tail suspension test with desmopressin (Example 6); type: in vivo; settings: oral desmopressin 0.03, 0.1, 0.3, 1.0 mg/kg vs felypressin 0.1 mg/kg
Method: Desmopressin at 0.03 mg/kg, 0.1 mg/kg, and 0.3 mg/kg was compared to felypressin at 0.1 mg/kg (n=6 per group) in a first study. Desmopressin at 0.1 mg/kg, 0.3 mg/kg, and 1.0 mg/kg was compared to felypressin at 0.1 mg/kg (n=6 per group) in a first study.

## CC(C)C[C@H](N)C(=O)N[C@@H](CO)C(=O)N[C@@H](CO)C(=O)N[C@H](C(=O)N[C@@H](CCC(N)=O)C(=O)N[C@@H](C)C(=O)N[C@@H](CCC(N)=O)C(=O)N[C@@H](CCC(N)=O)C(=O)N[C@@H](CO)C(=O)N[C@@H](Cc1ccc(O)cc1)C(=O)O)[C@@H](C)O [LSSTQAQQSY (SEQ ID NO: 1), LSSTQAQQSY] (H-LSSTQAQQSY-OH; N-terminus and C-terminus assumed)
Healthy subjects
  Vital signs, electrocardiography (ECG) data, and physical examinations: normal

## Cc1nc2c([nH]1)-c1ccccc1N(C(=O)c1ccc(NC(=O)c3ccccc3-c3ccccc3)cc1)CC2 [conivaptan]
Mouse [1]; low doses of inhibitor
  Blocking of LSSTQAQQSY (SEQ ID NO: 1) activity in a tail suspension test (reduced TST immobility): blocks
Mouse [1]; mouse, in vivo
  Blocking of LSSTQAQQSY (SEQ ID NO: 1) activity in a tail suspension test (reduced TST immobility): blocks
Mouse [2]; oral felypressin 0.1 mg/kg plus conivaptan 3 mg/kg
  Blocking of felypressin activity in the tail suspension test: blocks

## NC(=O)CC[C@@H]1NC(=O)[C@H](Cc2ccccc2)NC(=O)[C@H](Cc2ccc(O)cc2)NC(=O)CCSSC[C@@H](C(=O)N2CCC[C@H]2C(=O)N[C@H](CCCN=C(N)N)C(=O)NCC(N)=O)NC(=O)[C@H](CC(N)=O)NC1=O [desmopressin, 1-desamino-8-D-arginyl vasopressin]
Mouse [3]
  Antidepressant activity in the mouse tail suspension test, compared to felypressin: less of an effect than felypressin

## NCCCC[C@H](NC(=O)[C@@H]1CCCN1C(=O)[C@@H]1CSSC[C@H](N)C(=O)N[C@@H](Cc2ccccc2)C(=O)N[C@@H](Cc2ccccc2)C(=O)N[C@@H](CCC(N)=O)C(=O)N[C@@H](CC(N)=O)C(=O)N1)C(=O)NCC(N)=O [felypressin] (H-CFFQNCPKG-NH2; disulfide 1-6)
Mouse [2]; orally administered, 0.03, 0.1 and 0.3 mg/kg
  Antidepressant activity in the mouse tail suspension test: induces an antidepressant effect

## COc1ccc(S(=O)(=O)N2C(=O)[C@@](c3ccccc3OC)(N3C[C@H](O)C[C@H]3C(=O)N(C)C)c3cc(Cl)ccc32)c(OC)c1 [nelivaptan]
Mouse [1]; mouse, in vivo
  Blocking of LSSTQAQQSY (SEQ ID NO: 1) activity in a tail suspension test (reduced TST immobility): blocks

## Cc1ccccc1C(=O)Nc1ccc(C(=O)N2CCCC(O)c3cc(Cl)ccc32)c(C)c1 (centres unmarked) [tolvaptan]
Mouse [1]; mouse, in vivo
  Blocking of LSSTQAQQSY (SEQ ID NO: 1) activity in a tail suspension test (reduced TST immobility): does not block
